The source of these data is patent US7101878B1 (Agouron Pharmaceuticals, Inc., priority 1998, dated 2006).

SMILES strings stand for the structures.

The experiment addresses T1, mouse GnRH receptor (Mus musculus, UniProt Q01776).
T1 construct: expressed in transfected cells; host or cells: 293 cells
T1 sequence (Q01776 1-327): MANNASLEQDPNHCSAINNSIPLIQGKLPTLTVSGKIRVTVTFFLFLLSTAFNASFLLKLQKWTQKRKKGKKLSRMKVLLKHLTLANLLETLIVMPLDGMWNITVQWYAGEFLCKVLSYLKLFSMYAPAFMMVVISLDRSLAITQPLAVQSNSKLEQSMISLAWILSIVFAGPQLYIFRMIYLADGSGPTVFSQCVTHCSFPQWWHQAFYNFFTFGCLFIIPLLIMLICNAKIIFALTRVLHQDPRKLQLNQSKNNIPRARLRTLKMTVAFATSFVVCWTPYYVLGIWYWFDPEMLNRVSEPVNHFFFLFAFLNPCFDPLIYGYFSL
The experiment is described as follows: Radioligand binding, 125I-GnRH-A, 293 cells expressing mouse GnRH receptors. The settings on record: 10 uM; read-out: % Inhib. @ 10 uM mGnRH. Here is the method:
All compounds were diluted in 1% DMSO (final assay concentration) in binding assay buffer. […] Reactions were terminated by rapid filtration onto 96-well Packard GF/C filters soaked in 0.1% polyethyleneimine. Filters were washed three times with PBS buffer, dried and counted on a Packard Topcount by liquid scintillation counting.
Assay conditions were identical for assessing compound activities at other species. […] IC50 values for control peptides and test compounds were calculated utilizing GraphPad Prism™ software.
The reaction mixture was vortexed and incubated for 1 min at room temperature. After one min, the mixture was vortexed and allowed to incubate for an additional minute. 2 ml of 0.5 M acetic acid/1% BSA was added to the reaction tube and the mixture was added to a C18 Sep-Pak cartridge. The cartridge was washed with subsequent washes of 5 ml H2O and 5 ml 0.5M acetic acid and then eluted with 5×1 ml of 60% CH3CN/40% 0.5M acetic acid. The eluate was diluted with 3× volume of HPLC buffer A (0.1% TFA in H2O) and loaded onto a C18 column. […] The radioactive fractions (750 ed/fraction) are collected into clean polypropylene tubes containing 100 μl of 10% BSA. Fractions were assessed for biological activity by radioligand binding.
Turning to `Cc1cc2c(cc1Cc1ccc(C(=O)N3CCCCC3C)o1)C(C)(C)CCC2(C)C` (stereo not shown), the inhibition at 10 µM was 100%. As for `Cc1cc2c(cc1Cc1ccc(C(=O)N3CCN(CCc4ccccc4)CC3)o1)C(C)(C)CCC2(C)C`, the figure is 97%; as for `Cc1cc2c(cc1Cc1ccc(C(=O)N(Cc3cccnc3)Cc3cccc4ccccc34)o1)C(C)(C)CCC2(C)C`, 79%; as for `Cc1cc2c(cc1Cc1ccc(C(=O)N(Cc3cccnc3)Cc3ccc(Cl)c(Cl)c3)o1)C(C)(C)CCC2(C)C`, 79%. Turning to `Cc1cc2c(cc1Cc1ccc(C(=O)N(Cc3cccnc3)Cc3ccoc3)o1)C(C)(C)CCC2(C)C`, the inhibition at 10 µM was found to be 99%.

For `Cc1cc2c(cc1Cc1ccc(C(=O)NC3CCCC3)o1)C(C)(C)CCC2(C)C`, the inhibition at 10 µM turned out to be 73%. For `Cc1cc2c(cc1Cc1ccc(C(=O)N(C)C3CCCCC3)o1)C(C)(C)CCC2(C)C` the value was 97%; for `CCCCC(CC)COCCCNC(=O)c1ccc(Cc2cc3c(cc2C)C(C)(C)CCC3(C)C)o1` (stereo not shown), 58%. For `Cc1cc2c(cc1Cc1ccc(C(=O)N(CCO)CCO)o1)C(C)(C)CCC2(C)C` the value was 34%.

In the case of `Cc1cc2c(cc1Cc1ccc(C(=O)N(Cc3ccccc3Cl)C3CCN(Cc4ccccc4)CC3)o1)C(C)(C)CCC2(C)C`, the inhibition at 10 µM is 43%. For `Cc1cc2c(cc1Cc1ccc(C(=O)N3CCC[C@H]3C(N)=O)o1)C(C)(C)CCC2(C)C` the value was 74%; for `CCCCCNC(=O)c1ccc(Cc2cc3c(cc2C)C(C)(C)CCC3(C)C)o1`, 91%; for `CCC1CCCCN1C(=O)c1ccc(Cc2cc3c(cc2C)C(C)(C)CCC3(C)C)o1` (stereo not shown), 100%. As for `Cc1cc2c(cc1Cc1ccc(C(=O)NCCN(C(C)C)C(C)C)o1)C(C)(C)CCC2(C)C`, the figure is 102%. As for `Cc1ccc(CN(CCc2ccc(Cl)cc2Cl)C(=O)c2ccc(Cc3cc4c(cc3C)C(C)(C)CCC4(C)C)o2)cc1`, the figure is 23%; as for `CCN(Cc1ccccc1F)C(=O)c1ccc(Cc2cc3c(cc2C)C(C)(C)CCC3(C)C)o1`, 86%; as for `Cc1ccc(N2CCN(C(=O)c3ccc(Cc4cc5c(cc4C)C(C)(C)CCC5(C)C)o3)CC2)cc1C`, 75%. Regarding `Cc1cc2c(cc1Cc1ccc(C(=O)N(CCN3CCCC3)Cc3cccc(Oc4cccc(C(F)(F)F)c4)c3)o1)C(C)(C)CCC2(C)C`, the inhibition at 10 µM stood at 99%. As for `Cc1cc2c(cc1Cc1ccc(C(=O)N(Cc3cccc(Oc4cccc(C(F)(F)F)c4)c3)CC(C)(C)CN(C)C)o1)C(C)(C)CCC2(C)C`, the figure is 89%; as for `Cc1cc2c(cc1Cc1ccc(C(=O)N(C)C3CCN(Cc4ccccc4)C3)o1)C(C)(C)CCC2(C)C` (stereo not shown), 98%; as for `Cc1cc2c(cc1Cc1ccc(C(=O)NC(CO)C(C)(C)C)o1)C(C)(C)CCC2(C)C` (stereo not shown), 101%. With `COc1ccc(CCN(CC(C)C)C(=O)c2ccc(Cc3cc4c(cc3C)C(C)(C)CCC4(C)C)o2)cc1OC`, the inhibition at 10 µM worked out at 90%.

On to `Cc1cc2c(cc1Cc1ccc(C(=O)N(Cc3ccncc3)Cc3ccc4c(c3)OCO4)o1)C(C)(C)CCC2(C)C`, for which the inhibition at 10 µM is 91%. For `COc1cc(CN(Cc2ccncc2)C(=O)c2ccc(Cc3cc4c(cc3C)C(C)(C)CCC4(C)C)o2)ccc1OCc1ccccc1` the value was 64%; for `Cc1cc2c(cc1Cc1ccc(C(=O)N(Cc3cccnc3)CC(C)c3ccccc3)o1)C(C)(C)CCC2(C)C` (stereo not shown), 97%; for `Cc1cc2c(cc1Cc1ccc(C(=O)NC(CO)CO)o1)C(C)(C)CCC2(C)C`, 22%. As for `Cc1cc2c(cc1Cc1ccc(C(=O)NCC[N+](C)(C)C)o1)C(C)(C)CCC2(C)C`, the figure is 49%; as for `CCOC(=O)CC(C)NC(=O)c1ccc(Cc2cc3c(cc2C)C(C)(C)CCC3(C)C)o1` (stereo not shown), 88%; as for `CCN(CC)CCN(CC)C(=O)c1ccc(Cc2cc3c(cc2C)C(C)(C)CCC3(C)C)o1`, 98%. For `Cc1cc2c(cc1Cc1ccc(C(=O)NC3CCC(C)CC3)o1)C(C)(C)CCC2(C)C` (stereo not shown) the value was 64%; for `CCOC(=O)CC(C)(NC(N)=O)NC(=O)c1ccc(Cc2cc3c(cc2C)C(C)(C)CCC3(C)C)o1` (stereo not shown), 25%. For the compound `Cc1cc2c(cc1Cc1ccc(C(=O)N(CCC#N)C3CCCC3)o1)C(C)(C)CCC2(C)C`, the inhibition at 10 µM was found to be 88%. Consider `COc1cc2c(cc1OC)C(c1cccc(Br)c1)N(C(=O)c1ccc(Cc3cc4c(cc3C)C(C)(C)CCC4(C)C)o1)CC2` (stereo not shown), for which the inhibition at 10 µM is -23%. For `CCN(CC)CCCC(C)NC(=O)c1ccc(Cc2cc3c(cc2C)C(C)(C)CCC3(C)C)o1` (stereo not shown) the value was 99%. For `Cc1cc2c(cc1Cc1ccc(C(=O)N3CCCC(C(N)=O)C3)o1)C(C)(C)CCC2(C)C` (stereo not shown) the value was 69%; for `Cc1cc2c(cc1Cc1ccc(C(=O)N3CCC(N4CCCCC4)CC3)o1)C(C)(C)CCC2(C)C`, 92%. As for `Cc1cc2c(cc1Cc1ccc(C(=O)N3CCC(O)(c4ccccc4)CC3)o1)C(C)(C)CCC2(C)C`, the figure is 72%; as for `Cc1cc2c(cc1Cc1ccc(C(=O)N3CCC(C#N)(c4ccccc4)CC3)o1)C(C)(C)CCC2(C)C`, 40%; as for `CCN(C(=O)c1ccc(Cc2cc3c(cc2C)C(C)(C)CCC3(C)C)o1)C1C2CCC3CC32C1c1ccccc1` (stereo not shown), 49%. For the compound `Cc1cc2c(cc1Cc1ccc(C(=O)N3CCc4c([nH]c5ccccc45)C3)o1)C(C)(C)CCC2(C)C`, the inhibition at 10 µM came out at 44%. As for `Cc1cc2c(cc1Cc1ccc(C(=O)N(C)Cc3cccc4ccccc34)o1)C(C)(C)CCC2(C)C`, the figure is 51%. For `Cc1cc2c(cc1Cc1ccc(C(=O)N3CCN(C(c4ccccc4)c4ccc(Cl)cc4)CC3)o1)C(C)(C)CCC2(C)C` (stereo not shown) the value was 4%; for `Cc1cc2c(cc1Cc1ccc(C(=O)N3CCN(C(c4ccc(F)cc4)c4ccc(F)cc4)CC3)o1)C(C)(C)CCC2(C)C`, 16%. In the case of `Cc1cc2c(cc1Cc1ccc(C(=O)N3CCCC(C(=O)NC(c4ccccc4)c4ccccc4)C3)o1)C(C)(C)CCC2(C)C` (stereo not shown), the inhibition at 10 µM stood at 9%. As for `Cc1cc2c(cc1Cc1ccc(C(=O)N(Cc3ccccc3)Cc3ccccn3)o1)C(C)(C)CCC2(C)C`, the figure is 98%; as for `CCOC(=O)C1CCCCN1C(=O)c1ccc(Cc2cc3c(cc2C)C(C)(C)CCC3(C)C)o1` (stereo not shown), 94%; as for `Cc1cc2c(cc1Cc1ccc(C(=O)N3CCC(O)(Cc4ccccc4)CC3)o1)C(C)(C)CCC2(C)C`, 67%.

Turning to `COC(=O)C1CN(C(=O)c2ccc(Cc3cc4c(cc3C)C(C)(C)CCC4(C)C)o2)CC(C)C1=O` (stereo not shown), the inhibition at 10 µM is 26%.

Regarding `CCOC(=O)C1CN(C(=O)c2ccc(Cc3cc4c(cc3C)C(C)(C)CCC4(C)C)o2)CCC1=O` (stereo not shown), the inhibition at 10 µM came out at 71%. For `Cc1cc2c(cc1Cc1ccc(C(=O)N3CCCCC3C[C@H]3CCCN3C)o1)C(C)(C)CCC2(C)C` (stereo partly shown) the value was 28%; for `Cc1cc2c(cc1Cc1ccc(C(=O)N3CCN(C(=O)OC(C)(C)C)CC3)o1)C(C)(C)CCC2(C)C`, 90%. As for `Cc1cc2c(cc1Cc1ccc(C(=O)N3CCCCC3CCN3CCCCC3)o1)C(C)(C)CCC2(C)C` (stereo not shown), the figure is 103%. As for `CCC1CCC(C)N(C(=O)c2ccc(Cc3cc4c(cc3C)C(C)(C)CCC4(C)C)o2)C1` (stereo not shown), the figure is 95%.

In the case of `Cc1cc2c(cc1Cc1ccc(C(=O)N3CCN(CCN4CCOCC4)CC3)o1)C(C)(C)CCC2(C)C`, the inhibition at 10 µM turned out to be 73%. As for `Cc1cc2c(cc1Cc1ccc(C(=O)N3CCN(CCCN(C)C)CC3)o1)C(C)(C)CCC2(C)C`, the figure is 96%. For `C#CCN(CCC)CCN1CCN(C(=O)c2ccc(Cc3cc4c(cc3C)C(C)(C)CCC4(C)C)o2)CC1` the value was 101%; for `Cc1cc2c(cc1Cc1ccc(C(=O)N3CCN(CCN(C)C)CC3)o1)C(C)(C)CCC2(C)C`, 98%; for `Cc1cc2c(cc1Cc1ccc(C(=O)N3CCN(CC(=O)N(C)c4ccccc4)CC3)o1)C(C)(C)CCC2(C)C`, 103%.

As to `C=CCN1CCN(C(=O)c2ccc(Cc3cc4c(cc3C)C(C)(C)CCC4(C)C)o2)CC1`, the inhibition at 10 µM is 95%. As for `Cc1cc2c(cc1Cc1ccc(C(=O)NC(C(C)C)C(C)C)o1)C(C)(C)CCC2(C)C`, the figure is 58%; as for `CCCCNC(=O)c1ccc(Cc2cc3c(cc2C)C(C)(C)CCC3(C)C)o1`, 90%. As for `Cc1cc2c(cc1Cc1ccc(C(=O)N(Cc3ccccc3Cl)CC(c3ccccc3)c3ccccc3)o1)C(C)(C)CCC2(C)C`, the inhibition at 10 µM was 8%. As for `Cc1ccc(CN(CCCN2CCOCC2)C(=O)c2ccc(Cc3cc4c(cc3C)C(C)(C)CCC4(C)C)o2)cc1`, the figure is 103%; as for `CSc1ccc(CN(CCc2ccccn2)C(=O)c2ccc(Cc3cc4c(cc3C)C(C)(C)CCC4(C)C)o2)cc1`, 75%.
